Assay results: ChEMBL document CHEMBL2385021, “Discovery of MK-3168: A PET Tracer for Imaging Brain Fatty Acid Amide Hydrolase” (ACS Med Chem Lett, 2013); call rule not given here

What was measured:
[1] = Lipophilicity, log D of the compound at pH 7.3 by HPLC analysis; format: physicochemical; conditions: buffer
[2] = molecular target: T1, Fatty-acid amide hydrolase 1 (Rattus norvegicus, UniProt P97612); assay: Inhibition of rat FAAH expressed in CHO cell lysates assessed as arachidonyl-7-amino-4-methylcoumarin amide hydrolysis to 7-amino 4-methyl coumarin preincubated for 15 mins prior to substrate addition measured after 1 to 3 hrs by fluorescence assay; format: cell-free
T1 sequence (P97612 whole entry): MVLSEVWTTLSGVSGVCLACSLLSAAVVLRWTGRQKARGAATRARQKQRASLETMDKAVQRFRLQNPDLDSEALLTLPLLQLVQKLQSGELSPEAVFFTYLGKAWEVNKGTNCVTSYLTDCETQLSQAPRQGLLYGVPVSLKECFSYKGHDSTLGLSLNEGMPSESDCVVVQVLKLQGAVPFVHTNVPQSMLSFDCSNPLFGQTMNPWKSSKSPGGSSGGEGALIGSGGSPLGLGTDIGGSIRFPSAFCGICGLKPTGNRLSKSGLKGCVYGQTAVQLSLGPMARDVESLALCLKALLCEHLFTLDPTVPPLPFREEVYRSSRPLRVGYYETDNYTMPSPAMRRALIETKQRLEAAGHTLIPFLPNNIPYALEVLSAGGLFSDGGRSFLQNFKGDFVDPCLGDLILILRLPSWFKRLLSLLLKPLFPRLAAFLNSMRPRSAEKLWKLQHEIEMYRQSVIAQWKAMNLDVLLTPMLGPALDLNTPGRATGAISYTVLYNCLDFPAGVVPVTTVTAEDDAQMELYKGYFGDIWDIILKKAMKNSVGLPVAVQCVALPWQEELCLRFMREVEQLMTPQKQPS

[3] = molecular target: T2, Fatty-acid amide hydrolase 1 (Homo sapiens, UniProt O00519); assay: Inhibition of human FAAH expressed in CHO cell lysates assessed as arachidonyl-7-amino-4-methylcoumarin amide hydrolysis to 7-amino 4-methyl coumarin preincubated for 15 mins prior to substrate addition measured after 1 to 3 hrs by fluorescence assay; format: cell-free
T2 sequence (O00519 whole entry): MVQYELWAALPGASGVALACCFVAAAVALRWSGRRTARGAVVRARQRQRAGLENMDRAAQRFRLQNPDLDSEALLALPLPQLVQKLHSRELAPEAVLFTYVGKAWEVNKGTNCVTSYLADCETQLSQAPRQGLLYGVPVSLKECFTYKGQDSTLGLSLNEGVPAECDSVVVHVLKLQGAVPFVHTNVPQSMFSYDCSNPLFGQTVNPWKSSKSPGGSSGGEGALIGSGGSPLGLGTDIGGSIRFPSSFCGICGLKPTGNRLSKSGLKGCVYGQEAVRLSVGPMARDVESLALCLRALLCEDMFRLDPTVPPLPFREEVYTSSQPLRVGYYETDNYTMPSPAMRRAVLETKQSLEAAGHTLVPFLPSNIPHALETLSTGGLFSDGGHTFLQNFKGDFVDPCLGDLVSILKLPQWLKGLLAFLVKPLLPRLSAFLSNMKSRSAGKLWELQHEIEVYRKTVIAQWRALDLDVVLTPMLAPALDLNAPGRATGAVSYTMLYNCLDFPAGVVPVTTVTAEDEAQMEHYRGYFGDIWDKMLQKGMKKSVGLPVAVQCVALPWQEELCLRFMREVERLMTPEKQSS

[4] = Apparent permeability of the compound; format: ADME; conditions: not told
[5] = test system: Brain; assay: Drug uptake in iv dosed rhesus monkey brain after 45 mins measured per mCi/kg by positron emission tomographic analysis; format: ADME, organism-based, Macaca mulatta; conditions: in vivo, 0.75 h
[6] = test system: Hippocampus; assay: Drug uptake in rhesus monkey hippocampal regions at 5 mCi, iv after 45 mins by positron emission tomographic analysis; format: ADME, organism-based, Macaca mulatta; conditions: in vivo, 0.75 h
[7] = test system: Striatum; assay: Drug uptake in rhesus monkey striatum at 5 mCi, iv after 45 mins by positron emission tomographic analysis; format: ADME, organism-based, Macaca mulatta; conditions: in vivo, 0.75 h
[8] = Drug uptake in rhesus monkey frontal cortex at 5 mCi, iv after 45 mins by positron emission tomographic analysis; format: ADME, organism-based, Macaca mulatta; conditions: in vivo, 0.75 h
[9] = Inhibition of rhesus monkey FAAH expressed in CHO cell lysates assessed as arachidonyl-7-amino-4-methylcoumarin amide hydrolysis to 7-amino 4-methyl coumarin preincubated for 15 mins prior to substrate addition measured after 1 to 3 hrs by fluorescence assay; format: cell-free, Macaca mulatta
[10] = molecular target: T3, Fatty-acid amide hydrolase 1 (Homo sapiens) (UniProt O00519); assay: (§1) Binding affinity to FAAH in human cortical homogenates; conditions: tested as the 3H-labelled form
T3 sequence (whole entry): T2 sequence (O00519 whole entry)

[11] = species: Macaca mulatta; assay: (§2) Binding affinity to FAAH in rhesus monkey cortical homogenates; format: tissue-based; conditions: tested as the 3H-labelled form
[12] = Ratio of drug level in brain to plasma in rat at 2 mg/kg, po after 2 hrs; format: ADME, organism-based; parameters: dose 2 mg/kg, route oral; conditions: read-out: BPR
[13] = test system: Brain; assay: Drug uptake in rat brain at 2 mg/kg, po after 2 hrs; format: ADME, organism-based; parameters: dose 2 mg/kg, route oral; conditions: in vivo
[14] = Activity at human P-glycoprotein; format: ADME
[15] = Activity at rat P-glycoprotein; format: ADME
[16] = molecular target: Cannabinoid receptor 2 (Homo sapiens, UniProt P34972); assay: Inhibition of CB2 receptor (unknown origin)
Cannabinoid receptor 2, sequence (P34972 whole entry): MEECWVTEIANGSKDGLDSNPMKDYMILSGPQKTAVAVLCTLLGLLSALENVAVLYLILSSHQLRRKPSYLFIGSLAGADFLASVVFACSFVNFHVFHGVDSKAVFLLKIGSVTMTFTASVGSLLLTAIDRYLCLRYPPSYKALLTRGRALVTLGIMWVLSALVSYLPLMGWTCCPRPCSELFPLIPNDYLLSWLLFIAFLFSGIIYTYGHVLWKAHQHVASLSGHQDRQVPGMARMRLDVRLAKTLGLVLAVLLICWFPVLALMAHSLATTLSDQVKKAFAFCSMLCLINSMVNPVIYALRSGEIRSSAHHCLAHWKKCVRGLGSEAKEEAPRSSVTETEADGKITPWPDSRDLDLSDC

[17] = molecular target: Cytochrome P450 3A4 (Homo sapiens, UniProt P08684); assay: Inhibition of CYP3A4 (unknown origin); format: ADME
Cytochrome P450 3A4, sequence (P08684 whole entry): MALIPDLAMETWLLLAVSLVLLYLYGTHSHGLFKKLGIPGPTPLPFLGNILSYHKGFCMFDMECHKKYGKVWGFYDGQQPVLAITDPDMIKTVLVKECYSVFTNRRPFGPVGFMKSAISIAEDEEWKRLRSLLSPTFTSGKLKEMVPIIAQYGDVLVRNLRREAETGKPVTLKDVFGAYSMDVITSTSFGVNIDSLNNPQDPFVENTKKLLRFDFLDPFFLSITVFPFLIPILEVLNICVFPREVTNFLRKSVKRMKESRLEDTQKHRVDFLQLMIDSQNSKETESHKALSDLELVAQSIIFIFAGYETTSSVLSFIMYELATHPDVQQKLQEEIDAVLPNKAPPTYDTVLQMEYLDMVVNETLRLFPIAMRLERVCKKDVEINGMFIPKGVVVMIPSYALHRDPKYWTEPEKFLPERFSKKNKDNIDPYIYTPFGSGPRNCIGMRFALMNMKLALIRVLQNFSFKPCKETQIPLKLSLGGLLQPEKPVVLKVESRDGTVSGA

[18] = molecular target: Cannabinoid receptor 1 (Homo sapiens, UniProt P21554); assay: Inhibition of CB1 receptor (unknown origin)
Cannabinoid receptor 1, sequence (P21554 whole entry): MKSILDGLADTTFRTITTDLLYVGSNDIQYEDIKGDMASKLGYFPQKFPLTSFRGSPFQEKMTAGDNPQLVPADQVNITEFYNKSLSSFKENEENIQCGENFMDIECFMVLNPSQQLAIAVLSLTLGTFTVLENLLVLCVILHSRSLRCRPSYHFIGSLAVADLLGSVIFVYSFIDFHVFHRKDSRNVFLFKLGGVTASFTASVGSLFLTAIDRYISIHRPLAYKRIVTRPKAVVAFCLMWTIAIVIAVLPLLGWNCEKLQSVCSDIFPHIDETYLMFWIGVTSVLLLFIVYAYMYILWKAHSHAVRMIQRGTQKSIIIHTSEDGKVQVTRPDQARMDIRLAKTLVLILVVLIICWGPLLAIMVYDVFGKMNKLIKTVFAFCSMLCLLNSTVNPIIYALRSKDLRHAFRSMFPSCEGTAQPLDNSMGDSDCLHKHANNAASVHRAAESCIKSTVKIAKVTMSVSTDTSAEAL

[19] = molecular target: Voltage-gated inwardly rectifying potassium channel KCNH2 (Homo sapiens, UniProt Q12809); assay: Inhibition of human ERG
Voltage-gated inwardly rectifying potassium channel KCNH2, sequence (Q12809 whole entry): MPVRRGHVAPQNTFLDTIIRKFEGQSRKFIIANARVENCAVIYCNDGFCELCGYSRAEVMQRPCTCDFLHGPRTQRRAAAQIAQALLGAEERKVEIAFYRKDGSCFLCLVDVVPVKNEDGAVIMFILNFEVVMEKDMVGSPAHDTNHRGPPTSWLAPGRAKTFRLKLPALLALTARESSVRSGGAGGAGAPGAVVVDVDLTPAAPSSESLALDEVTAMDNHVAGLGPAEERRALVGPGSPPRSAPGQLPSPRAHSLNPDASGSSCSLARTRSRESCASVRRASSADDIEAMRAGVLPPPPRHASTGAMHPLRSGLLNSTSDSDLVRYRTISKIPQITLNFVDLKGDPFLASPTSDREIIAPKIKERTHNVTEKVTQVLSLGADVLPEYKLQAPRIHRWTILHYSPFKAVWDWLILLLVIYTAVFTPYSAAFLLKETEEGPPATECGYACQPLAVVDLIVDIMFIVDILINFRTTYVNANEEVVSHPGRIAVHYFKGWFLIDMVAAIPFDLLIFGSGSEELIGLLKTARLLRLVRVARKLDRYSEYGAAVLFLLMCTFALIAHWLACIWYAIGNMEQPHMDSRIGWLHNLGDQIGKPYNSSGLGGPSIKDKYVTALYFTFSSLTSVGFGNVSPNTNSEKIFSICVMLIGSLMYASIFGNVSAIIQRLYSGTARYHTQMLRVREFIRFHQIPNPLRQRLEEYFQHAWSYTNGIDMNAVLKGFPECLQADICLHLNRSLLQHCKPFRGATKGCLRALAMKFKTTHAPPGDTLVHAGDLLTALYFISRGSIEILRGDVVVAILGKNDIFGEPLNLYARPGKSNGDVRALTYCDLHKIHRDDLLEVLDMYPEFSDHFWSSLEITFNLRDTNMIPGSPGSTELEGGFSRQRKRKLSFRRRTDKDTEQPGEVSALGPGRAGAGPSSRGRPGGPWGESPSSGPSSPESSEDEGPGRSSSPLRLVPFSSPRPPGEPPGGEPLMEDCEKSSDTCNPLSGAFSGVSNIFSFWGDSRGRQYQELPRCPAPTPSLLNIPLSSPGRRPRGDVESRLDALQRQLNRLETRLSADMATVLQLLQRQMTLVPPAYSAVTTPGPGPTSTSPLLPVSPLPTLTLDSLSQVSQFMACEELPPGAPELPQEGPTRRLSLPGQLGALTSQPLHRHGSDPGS

[20] = Inhibition of L-type calcium channel diltiazem binding site (unknown origin); parameters: species or system Homo sapiens
[21] = molecular target: Phosphodiesterase 4 (Homo sapiens, UniProt P27815+Q08499+Q07343+Q08493); assay: Inhibition of phosphodiesterase PDE4 (unknown origin); format: protein assay
[22] = molecular target: Acetylcholinesterase (Homo sapiens, UniProt P22303); assay: Inhibition of acetyl cholinesterase (unknown origin)
Acetylcholinesterase, sequence (P22303 whole entry): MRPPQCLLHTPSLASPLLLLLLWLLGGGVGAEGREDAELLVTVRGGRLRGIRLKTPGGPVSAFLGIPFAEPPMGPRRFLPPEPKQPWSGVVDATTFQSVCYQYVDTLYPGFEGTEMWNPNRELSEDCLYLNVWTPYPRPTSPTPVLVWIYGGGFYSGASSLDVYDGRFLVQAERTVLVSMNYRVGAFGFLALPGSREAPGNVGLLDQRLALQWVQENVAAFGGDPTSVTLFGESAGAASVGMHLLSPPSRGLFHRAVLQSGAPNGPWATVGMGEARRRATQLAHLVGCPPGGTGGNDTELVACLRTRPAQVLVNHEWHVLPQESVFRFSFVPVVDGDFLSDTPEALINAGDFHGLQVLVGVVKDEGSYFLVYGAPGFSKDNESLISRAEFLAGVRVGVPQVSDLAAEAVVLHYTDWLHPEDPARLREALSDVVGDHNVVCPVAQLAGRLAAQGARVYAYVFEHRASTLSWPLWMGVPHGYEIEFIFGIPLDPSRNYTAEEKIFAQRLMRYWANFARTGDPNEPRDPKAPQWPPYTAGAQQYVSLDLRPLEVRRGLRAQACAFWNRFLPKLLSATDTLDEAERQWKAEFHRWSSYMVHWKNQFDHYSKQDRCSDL

[23] = species: Macaca mulatta; assay: Inhibition of FAAH in rhesus monkey whole blood; format: tissue-based
[24] = molecular target: T3, Fatty-acid amide hydrolase 1 (Homo sapiens); assay: Inhibition of FAAH in human whole blood
[25] = Solubility of the compound in saline buffer at pH 3 to 8 in presence of 10% ethanol; format: physicochemical
[26] = Chemical stability of the compound; format: physicochemical
[27] = molecular target: T2, Fatty-acid amide hydrolase 1; assay: as §1
[28] = as §2; format: tissue-based, Macaca mulatta
[29] = molecular target: T1, Fatty-acid amide hydrolase 1; assay: Binding affinity to FAAH in rat cortical homogenates

Row | logD [1] | IC50 [2] [nM] | IC50 [3] [nM] | IC50 [9] [nM] | SMILES | further results
1 | 3.8 | 1.4 | 0.5 |  | CNC(=O)[C@H]1C[C@@H]1c1ccc(-c2ncn(C)c2Sc2ccc(Cl)cc2)cc1 | 
2 | 2.9 | 6 |  |  | CNC(=O)[C@H]1C[C@@H]1c1ccc(-c2ncn(C)c2Sc2ccc(Cl)cn2)cc1 | 
3 |  | 1390 | 839 |  | CN(C)C(=O)[C@H]1C[C@@H]1c1ccc(-c2c(Sc3ccc(Cl)cn3)ncn2C)cc1 | 
4 | 4.2 | 0.6 |  | 1.4 | CN(C)C(=O)[C@H]1C[C@@H]1c1ccc(-c2ncn(C)c2Sc2ccc(Cl)cc2)cc1 | 
5 | 2 | 12 |  |  | Cn1cnc(-c2ccc([C@H]3C[C@@H]3C(N)=O)cc2)c1Sc1ccc(Cl)cn1 | 
6 | 3.8 | 4.2 | 5 | 33 | NC(=O)[C@H]1C[C@@H]1c1ccc(-c2nn(C3CC3)cc2Sc2ccc(Cl)cc2)cc1 | 
7 | 3.6 | 1.7 | 0.8 |  | Cn1cnc(-c2ccc([C@H]3C[C@@H]3C(N)=O)cc2)c1Sc1ccc(Cl)cc1 | 
8 | 4 | 1.4 | 1 | 3.1 | Cn1cnc(-c2ccc([C@H]3C[C@@H]3C(=O)NCCF)cc2)c1Sc1ccc(Cl)cc1 | 
9 | 4.3 | 1.3 | 1.1 | 8.8 | CN(CCF)C(=O)[C@H]1C[C@@H]1c1ccc(-c2ncn(C)c2Sc2ccc(Cl)cc2)cc1 | 
10 | 4.2 | 0.4 | 0.5 | 0.8 | [11CH3]n1cc(Sc2ccc(Cl)cc2)c(-c2ccc3ccc(C(N)=O)nc3c2)n1 | 

More lines, now with the values behind:

Row | SMILES | logD [1] | IC50 [2] [nM] | IC50 [3] [nM] | IC50 [9] [nM] | further results
11 | CN(C)C(=O)[C@H]1C[C@@H]1c1ccc(-c2ncn([11CH3])c2Sc2ccc(Cl)cn2)cc1 [MK-3168 C-11] |  |  |  |  | Papp [4]: 27 ×10⁻⁶ cm/s; SUV [5]: > 1 nCi/cc; Drug uptake [6]: Active; Drug uptake [7]: Active; Drug uptake [8]: Active
12 | CN(CCF)C(=O)[C@H]1C[C@@H]1c1ccc(-c2ncn(C)c2Sc2ccc(Cl)cn2)cc1 | 3.4 | 3 |  | 27 | 
13 | Cn1cnc(-c2ccc([C@H]3C[C@@H]3C(=O)NCCF)cc2)c1Sc1ccc(Cl)cn1 | 3 | 4.2 |  | 7 | 
14 | CN(C)C(=O)[C@H]1C[C@@H]1c1ccc(-c2ncn(CCF)c2Sc2ccc(Cl)cn2)cc1 |  | 4.8 |  |  | 
15 | CN(C)C(=O)[C@H]1C[C@@H]1c1ccc(-c2ncn(C)c2Sc2ccc(Cl)cn2)cc1 [MK-3168] | 3.3 | 1.7 |  | 5.5 | Bmax [10]: 15 nM; Bmax [11]: 21 nM; Kp at 2 h [12]: 7; Drug uptake [13]: Active; Activity [14]: Not Active; Activity [15]: Not Active; IC50 [16]: 150000 nM; IC50 [17]: > 50000 nM; IC50 [18]: 30000 nM; IC50 [19]: 37000 nM; IC50 [20]: 16000 nM; IC50 [21]: 9750 nM; IC50 [22]: 1630 nM; IC90 [23]: 29 nM; IC90 [24]: 5.5 nM; solubility [25]: soluble; Stability [26]: 24 h
16 | [3H]C([3H])([3H])n1cnc(-c2ccc([C@H]3C[C@@H]3C(=O)N(C)C)cc2)c1Sc1ccc(Cl)cn1 |  |  |  |  | Kd [27]: 0.8 nM; Kd [28]: 1.4 nM; Kd [29]: 0.6 nM
17 | CN(C)C(=O)[C@H]1C[C@@H]1c1ccc(-c2nc(C3CC3)n(C)c2Sc2ccc(Cl)cn2)cc1 |  | 106 | 48 |  | 
18 | CN(C)C(=O)[C@H]1C[C@@H]1c1ccc(-c2nc[nH]c2Sc2ccc(Cl)cn2)cc1 |  | 145 |  |  | 
19 | Cc1nc(-c2ccc([C@H]3C[C@@H]3C(=O)N(C)C)cc2)c(Sc2ccc(Cl)cn2)n1C |  | 34 | 13.6 |  | 
